How the values were obtained:
Type in all cases: cell-based
MV 522 = assay: MTS cell growth inhibition assay, MV 522; conditions: MV522, MV 522, Lung; for inhibition at 200 µM: read-out: Mean Percent Response at 200 μM (percent of cell growth inhibited); for IC50: mean of 2 independent trials
Protocol: (§1) Activity Of 6-Methyloxamethyl Exemestane Compounds Against Cancer Cell Lines. Cancer-derived cell lines were used for the following growth inhibition assay. The ability of the compound of Formula (B) above and the compound of Formula (D) above to inhibit cancer-derived cell growth was compared to exemestane as a control.
(§2) Cell viability is determined using the MTS assay. This calorimetric procedure measures conversion of the MTS reagent (a tetrazoleum salt) to formazan by living cells. Formazan production is quantified by spectrophotometric measurement at 490 nm and is proportional to viable cell number. Cells are cultured and treated. Following treatment, 100 μl of growth medium is removed and cells incubated with 20 μl CellTiter 96® AQueous One Solution Reagent (1.9 mg/ml in PBS, pH 6.0) for 1-3 hours at 37° C. Absorbance (OD) values are measured using a μQuant microplate reader at a single wavelength of 490 nm.
(§3) Additional assays were performed to evaluate the growth-inhibiting activity of the compound of Formula (B) above and the compound of Formula (D) compared to exemestane as a control.

PC-3 = assay: MTS cell growth inhibition assay, PC-3; conditions: Homo sapiens, PC-3, Prostrate; for inhibition at 200 µM: read-out: Mean Percent Response at 200 μM (percent of cell growth inhibited); for IC50: mean of 2 independent trials
Protocol: as §1, §2, §3

MCF-7 = assay: MTS cell growth inhibition assay, MCF-7; conditions: Homo sapiens, MCF7, MCF-7, Breast; for inhibition at 200 µM: read-out: Mean Percent Response at 200 μM (percent of cell growth inhibited); for IC50: mean of 2 independent trials
Protocol: as §1, §2, §3

MDA-MB-231 = assay: MTS cell growth inhibition assay, MDA-MB-231; conditions: Homo sapiens, MDA-MB-231, Breast; for inhibition at 200 µM: read-out: Mean Percent Response at 200 μM (percent of cell growth inhibited); for IC50: mean of 2 independent trials
Protocol: as §1, §2, §3

SK-OV-3 = assay: MTS cell growth inhibition assay, SK-OV-3; conditions: Homo sapiens, SK-OV-3, Ovarian; for inhibition at 200 µM: read-out: Mean Percent Response at 200 μM (percent of cell growth inhibited); for IC50: mean of 2 independent trials
Protocol: as §1, §2, §3

HT-29 = assay: MTS cell growth inhibition assay, HT-29; conditions: Homo sapiens, HT-29, Colon; for inhibition at 200 µM: read-out: Mean Percent Response at 200 μM (percent of cell growth inhibited); for IC50: mean of 2 independent trials
Protocol: as §1, §2, §3

NIH: H23 = assay: MTS cell growth inhibition assay, NIH: H23; conditions: NIH: H23, Lung; for inhibition at 200 µM: read-out: Mean Percent Response at 200 μM (percent of cell growth inhibited); for IC50: mean of 2 independent trials
Protocol: as §1, §2, §3

NIH: OVCAR-3 = assay: MTS cell growth inhibition assay, NIH: OVCAR-3; conditions: Homo sapiens, NIH: OVCAR-3, Ovarian; for inhibition at 200 µM: read-out: Mean Percent Response at 200 μM (percent of cell growth inhibited); for IC50: mean of 2 independent trials
Protocol: as §1, §2, §3

[1] = tested on: a variety of cancer cell lines; assay: Growth inhibition across the cancer cell line panel; conditions: for activity against cancer cell lines, in words: text summary of Tables 1-3
Protocol: as §1, §2, §3

Capan-1 = assay: MTS cell growth inhibition assay, Capan-1; conditions: Homo sapiens, Capan-1, Pancreas; for inhibition at 200 µM: read-out: Mean Percent Response at 200 μM (percent of cell growth inhibited); for IC50: mean of 2 independent trials
Protocol: as §1, §2, §3

Capan-2 = assay: MTS cell growth inhibition assay, Capan-2; conditions: Homo sapiens, Capan-2, Pancreas; for inhibition at 200 µM: read-out: Mean Percent Response at 200 μM (percent of cell growth inhibited); for IC50: mean of 2 independent trials
Protocol: as §1, §2, §3

Structure (SMILES) | inhibition at 200 µM (MV 522) [%] | IC50 (MV 522) [µM] | inhibition at 200 µM (PC-3) [%] | IC50 (PC-3) [µM] | inhibition at 200 µM (MCF-7) [%] | IC50 (MCF-7) [µM] | inhibition at 200 µM (MDA-MB-231) [%] | IC50 (MDA-MB-231) [µM] | inhibition at 200 µM (SK-OV-3) [%] | IC50 (SK-OV-3) [µM] | inhibition at 200 µM (HT-29) [%] | IC50 (HT-29) [µM] | inhibition at 200 µM (NIH: H23) [%] | IC50 (NIH: H23) [µM] | inhibition at 200 µM (NIH: OVCAR-3) [%] | IC50 (NIH: OVCAR-3) [µM] | inhibition at 200 µM (Capan-1) [%] | IC50 (Capan-1) [µM] | inhibition at 200 µM (Capan-2) [%] | IC50 (Capan-2) [µM] | further results
COC[C@@H]1C[C@@H]2[C@H](CC[C@]3(C)C(=O)CC[C@@H]23)[C@@]2(C)C=CC(=O)C=C12 [Exemestane 6R] | 96 | 95 | 78 | 108 | 56 | > 200 | 95 | 77 | 98 | 106 | 80 | 110 | 65 | 106 | 78 | 54 | 28 | 176 | 46 | 104 | inhibition at 200 µM ([1]; see Table 2, 200 μM, read-out: inhibition against a variety of cancer cell lines): 95 to 98%
C=C1C[C@@H]2[C@H](CC[C@]3(C)C(=O)CC[C@@H]23)[C@@]2(C)C=CC(=O)C=C12 [Exemestane, 6-methylenandrosta-1,4-diene-3,17-dione] | 79 | 103 | 67 | 105 | 68 | 96 | 67 | 64 | 85 | 78 | 75 | 103 | 81 | 50 | 88 | 73 | 74 | 98 | 56 | 94 | activity against cancer cell lines, in words [1]: marginal activity
COC[C@H]1C[C@@H]2[C@H](CC[C@]3(C)C(=O)CC[C@@H]23)[C@@]2(C)C=CC(=O)C=C12 [Exemestane 6S] | 19 | > 200 | 0 | > 200 | 0 | > 200 | 21 | > 200 | 0.3 | > 200 | 8 | > 200 | 12 | > 200 | 6 | > 200 | 5 | > 200 | 15 | > 200 | activity against cancer cell lines, in words [1]: works best against cell lines that are estrogen (−) and/or aromatase (+)

From patent US7846918B2, “Exemestane compounds, compositions and related methods of use” (Endece, LLC, priority 2005, dated 2010)
